# Laboratory results as given in ChEMBL document CHEMBL1134926, “Structure-Activity relationships of 2-substituted 5,7-Diarylcyclopenteno[1,2-b]pyridine-6-carboxylic acids as a novel class of endothelin receptor antagonists” (Bioorg Med Chem Lett, 2002).
# pIC50: −log10 of the molar value.
# What was measured:
# [1] = target: T1, Endothelin receptor type B (Homo sapiens, UniProt P24530); test: Inhibitory activity against I-labeled ET-1 binding to Endothelin B receptor
# T1 sequence (P24530 whole entry): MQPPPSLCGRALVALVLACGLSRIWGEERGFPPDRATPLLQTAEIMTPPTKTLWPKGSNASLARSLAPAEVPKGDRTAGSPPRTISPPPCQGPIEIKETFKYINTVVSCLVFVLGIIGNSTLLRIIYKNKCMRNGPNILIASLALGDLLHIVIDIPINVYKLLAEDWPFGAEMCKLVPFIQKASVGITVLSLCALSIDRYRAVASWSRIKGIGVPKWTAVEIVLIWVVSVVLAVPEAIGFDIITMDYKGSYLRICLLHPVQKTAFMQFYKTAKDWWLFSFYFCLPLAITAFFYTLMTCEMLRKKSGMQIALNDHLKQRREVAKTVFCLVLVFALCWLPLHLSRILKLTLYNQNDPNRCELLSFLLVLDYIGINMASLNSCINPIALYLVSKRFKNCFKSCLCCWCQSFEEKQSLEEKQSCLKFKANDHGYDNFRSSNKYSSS
# [2] = target: Endothelin receptor, ET-A/ET-B (Homo sapiens) (UniProt P24530+P25101); test: Selectivity was calculated as the ratio of IC50 of Endothelin B receptor / IC50 of Endothelin A receptor; format: protein assay
# Endothelin-1 receptor = target: T2, Endothelin-1 receptor (Homo sapiens, UniProt P25101); test: Inhibitory activity against I-labeled ET-1 binding to Endothelin A receptor
# T2 sequence (P25101 whole entry): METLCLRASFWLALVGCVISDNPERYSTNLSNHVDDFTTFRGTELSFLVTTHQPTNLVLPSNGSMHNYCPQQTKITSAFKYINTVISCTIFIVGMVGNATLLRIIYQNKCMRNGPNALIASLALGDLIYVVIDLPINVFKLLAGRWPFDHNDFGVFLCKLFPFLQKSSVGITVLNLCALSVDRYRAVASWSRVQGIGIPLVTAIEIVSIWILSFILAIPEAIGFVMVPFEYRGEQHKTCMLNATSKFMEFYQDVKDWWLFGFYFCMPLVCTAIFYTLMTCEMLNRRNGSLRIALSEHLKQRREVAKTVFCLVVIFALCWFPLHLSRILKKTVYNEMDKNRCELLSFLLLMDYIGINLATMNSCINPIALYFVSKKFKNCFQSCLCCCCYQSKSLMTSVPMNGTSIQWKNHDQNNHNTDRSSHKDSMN
pIC50 [1],Ratio [2],pIC50 (Endothelin-1 receptor),Structure (SMILES)
7.96,52,9.68,CCCCc1ccc2c(n1)[C@@H](c1ccc(OC)cc1)[C@H](C(=O)O)[C@H]2c1ccc2c(c1)OCO2
7.06,19,8.35,CCc1ccc2c(n1)[C@@H](c1ccc(OC)cc1)[C@H](C(=O)O)[C@H]2c1ccc2c(c1)OCO2
7.20,520,9.92,"CCCNc1ccc2c(n1)[C@@H](c1ccc(OC)cc1)[C@H](C(=O)O)C2c1ccc2c(c1)OCO2 (single isomer, unassigned)"
6.72,350,9.26,"COc1ccc([C@@H]2c3nc(CCCO)ccc3C(c3ccc4c(c3)OCO4)[C@H]2C(=O)O)cc1 (single isomer, unassigned)"
6.28,3.5,6.82,"COc1ccc([C@@H]2c3nc(CCC(=O)O)ccc3C(c3ccc4c(c3)OCO4)[C@H]2C(=O)O)cc1 (single isomer, unassigned)"
6.85,270,9.29,"CCOCc1ccc2c(n1)[C@@H](c1ccc(OC)cc1)[C@H](C(=O)O)C2c1ccc2c(c1)OCO2 (single isomer, unassigned)"
7.38,420,10.00,"COc1ccc([C@@H]2c3nc(NC(C)C)ccc3C(c3ccc4c(c3)OCO4)[C@H]2C(=O)O)cc1 (single isomer, unassigned)"
7.68,9.5,8.66,"COc1ccc([C@@H]2c3nc(N4CCCC4)ccc3C(c3ccc4c(c3)OCO4)[C@H]2C(=O)O)cc1 (single isomer, unassigned)"
7.20,39,8.80,COc1ccc([C@@H]2c3nc(C4CC4)ccc3[C@H](c3ccc4c(c3)OCO4)[C@H]2C(=O)O)cc1
6.89,8.7,7.82,"COc1ccc([C@@H]2c3nc(-c4ccccc4)ccc3C(c3ccc4c(c3)OCO4)[C@H]2C(=O)O)cc1 (single isomer, unassigned)"
8.08,26,9.49,COc1ccc([C@@H]2c3nc(CC(C)C)ccc3[C@H](c3ccc4c(c3)OCO4)[C@H]2C(=O)O)cc1
6.03,130,8.15,"CCNCc1ccc2c(n1)[C@@H](c1ccc(OC)cc1)[C@H](C(=O)O)C2c1ccc2c(c1)OCO2 (single isomer, unassigned)"
8.04,4.8,8.72,CCCCCc1ccc2c(n1)[C@@H](c1ccc(OC)cc1)[C@H](C(=O)O)[C@H]2c1ccc2c(c1)OCO2
7.85,4.4,8.49,"COc1ccc([C@@H]2c3nc(N(C)C(C)C)ccc3C(c3ccc4c(c3)OCO4)[C@H]2C(=O)O)cc1 (single isomer, unassigned)"
7.52,81,9.43,CCCc1ccc2c(n1)[C@@H](c1ccc(OC)cc1)[C@H](C(=O)O)[C@H]2c1ccc2c(c1)OCO2
7.19,71,9.04,"CCCOc1ccc2c(n1)[C@@H](c1ccc(OC)cc1)[C@H](C(=O)O)C2c1ccc2c(c1)OCO2 (single isomer, unassigned)"
7.00,18,8.24,COc1ccc([C@@H]2c3nc(C)ccc3[C@H](c3ccc4c(c3)OCO4)[C@H]2C(=O)O)cc1
7.85,70,9.70,C=CCCc1ccc2c(n1)[C@@H](c1ccc(OC)cc1)[C@H](C(=O)O)[C@H]2c1ccc2c(c1)OCO2
7.28,6.5,8.09,"CCCSc1ccc2c(n1)[C@@H](c1ccc(OC)cc1)[C@H](C(=O)O)C2c1ccc2c(c1)OCO2 (single isomer, unassigned)"
6.39,170,8.62,COc1ccc([C@@H]2c3ncccc3[C@H](c3ccc4c(c3)OCO4)[C@H]2C(=O)O)cc1
